Usually IC50 stands for the concentration at which inhibition is half-maximal. A low value points to greater potency.

Counter-ions that a name gives are not always drawn.

The target of this assay is MCL-1 (Homo sapiens (Human), UniProt Q07820, K194A/K197A/R201A). Description: Protein-protein interaction assay MCL-1/Noxa BH3 peptide (MCL-1 assay, TR-FRET). It counts as binding. The note with it: MBP-MCL-1 / Noxa BH3 peptide, median. An outline of the steps: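 MBP-fused MCL-1 (aa 173-329, 1 nM) was pre-incubated with compound for 10 min at 22° C, then biotinylated Noxa BH3 peptide (1 nM) was added with anti-MBP-Eu cryptate and streptavidin-XL665. Incubation was 1 h at 22° C, then overnight at 4° C, in Tris pH 7 buffer. The 665/620 nm ratio over 11 concentrations (0.1 nM-20 μM) gave IC50 by 4-parameter fit.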
On the technique in general: In TR-FRET formats the signal depends on donor and acceptor labels being close together.

Sequence of MCL-1 (Q07820 whole entry K194A/K197A/R201A, looked up, the tested form may be a part): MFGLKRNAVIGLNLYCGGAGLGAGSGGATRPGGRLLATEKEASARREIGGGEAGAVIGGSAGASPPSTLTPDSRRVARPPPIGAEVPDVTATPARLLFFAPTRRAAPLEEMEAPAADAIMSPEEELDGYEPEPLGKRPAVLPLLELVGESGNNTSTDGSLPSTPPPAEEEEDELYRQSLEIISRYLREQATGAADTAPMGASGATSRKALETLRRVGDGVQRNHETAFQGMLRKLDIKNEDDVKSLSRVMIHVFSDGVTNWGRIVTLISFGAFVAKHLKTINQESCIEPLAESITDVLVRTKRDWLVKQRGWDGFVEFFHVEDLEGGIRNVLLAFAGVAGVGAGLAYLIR

Molecule `Cc1c2c(nn1C)CN(C1CC1)S(=O)(=O)CCCn1c(C(=O)O)c(CCCOc3cccc4cc(F)ccc34)c3ccc(Cl)c-2c31` (racemic) [Example 41, (rac)-4-chloro-14-cyclopropyl-7-{3-[(6-fluoro-1-naphthyl)oxy]propyl}-2,3-dimethyl-11,12,14,15-tetrahydro-2H,10H-pyrazolo[3′,4′:4,5][1,2,8]thiadiazacycloundecino[6,7,8-hi]indole-8-carboxylic acid 13,13-dioxide] showed an IC50 of 1.3 nM.
Under `Cc1c2c(nn1C)C(CCN1CCOCC1)N(C)S(=O)(=O)CCCn1c(C(=O)O)c(CCCOc3cccc4ccccc34)c3cccc-2c31` (racemic) [Example 44, (rac)-2,3,14-trimethyl-15-[2-(rac)-(morpholin-4-yl)ethyl]-7-[3-(1-naphthyloxy)propyl]-11,12,14,15-tetrahydro-2H,10H-pyrazolo[3′,4′:4,5][1,2,8]thiadiazacycloundecino[6,7,8-hi]indole-8-carboxylic acid 13,13-dioxide (Mixture of Stereoisomers)] stands 3 nM.
`Cc1c2c(nn1C)C(N1CCOCC1)CCN(C)S(=O)(=O)CCCn1c(C(=O)O)c(CCCOc3cccc4cc(F)ccc34)c3ccc(Cl)c-2c31` (racemic) [Example 47, (rac)-15-chloro-1-(3-((6-fluoronaphthalen-1-yl)oxy)propyl)-8,13,14-trimethyl-11-(rac)-morpholino-5,6,9,10,11,13-hexahydro-4H,8H-pyrazolo[3′,4′:6,7][1]thia[2,10]diazacyclotridecino[8,9,10-hi]indole-2-carboxylic acid 7,7-dioxide (Mixture of Stereoisomers)] registered an IC50 of 0.8 nM. Compared with the last molecule, the IC50 is about 3.8-fold lower.
For the molecule `Cc1c2c(nn1C)C(CCN1CCOCC1)N(C)S(=O)(=O)CCCn1c(C(=O)O)c(CCCOc3cccc4cc(F)ccc34)c3ccc(Cl)c-2c31` (racemic) [Example 48, (rac)-4-chloro-7-{3-[(6-fluoro-1-naphthyl)oxy]propyl}-2,3,14-trimethyl-15-(rac)-[2-(morpholin-4-yl)ethyl]-11,12,14,15-tetrahydro-2H,10H-pyrazolo[3′,4′:4,5][1,2,8]thiadiazacycloundecino[6,7,8-hi]indole-8-carboxylic acid 13,13-dioxide (Mixture of Stereoisomers)], 0.93 nM corresponded to half-maximal inhibition (IC50).
Consider `COc1ccc(CN2Cc3nn(C)c(C)c3-c3c(Cl)ccc4c(CCCOc5cccc6cc(F)ccc56)c(C(=O)O)n(c34)CCCS2(=O)=O)c(OC)c1` (racemic) [Example 49, (rac)-4-chloro-14-(2,4-dimethoxybenzyl)-7-{3-[(6-fluoro-1-naphthyl)oxy]propyl}-2,3-dimethyl-11,12,14,15-tetrahydro-2H,10H-pyrazolo[3′,4′:4,5][1,2,8]thiadiazacycloundecino[6,7,8-hi]indole-8-carboxylic acid 13,13-dioxide], for which the midpoint of inhibition, the IC50, lay at 3.2 nM.
On to `Cc1c2c(nn1C)CNS(=O)(=O)CCCn1c(C(=O)O)c(CCCOc3cccc4cc(F)ccc34)c3ccc(Cl)c-2c31` (racemic) [Example 50, (rac)-4-chloro-7-{3-[(6-fluoro-1-naphthyl)oxy]propyl}-2,3-dimethyl-11,12,14,15-tetrahydro-2H,10H-pyrazolo[3′,4′:4,5][1,2,8]thiadiazacycloundecino[6,7,8-hi]indole-8-carboxylic acid 13,13-dioxide], for which the half-maximal inhibitory concentration (IC50) came to 0.74 nM. Against the preceding molecule, the IC50 is about 4.3-fold lower.
For the molecule `CCc1c2c(nn1C)CN(C1CC1)S(=O)(=O)CCCn1c(C(=O)O)c(CCCOc3cccc4cc(F)ccc34)c3ccc(Cl)c-2c31` (racemic) [Example 53, (rac)-4-chloro-14-cyclopropyl-3-ethyl-7-{3-[(6-fluoro-1-naphthyl)oxy]propyl}-2-methyl-11,12,14,15-tetrahydro-2H,10H-pyrazolo[3′,4′:4,5][1,2,8]thiadiazacycloundecino[6,7,8-hi]indole-8-carboxylic acid 13,13-dioxide], the IC50 amounted to 1.7 nM.
In turn, `CCc1c2c(nn1C)CN(CC)S(=O)(=O)CCCn1c(C(=O)O)c(CCCOc3cccc4cc(F)ccc34)c3ccc(Cl)c-2c31` (racemic) [Example 56, (rac)-4-chloro-3,14-diethyl-7-{3-[(6-fluoro-1-naphthyl)oxy]propyl}-2-methyl-11,12,14,15-tetrahydro-2H,10H-pyrazolo[3′,4′:4,5][1,2,8]thiadiazacycloundecino[6,7,8-hi]indole-8-carboxylic acid 13,13-dioxide] registered an IC50 of 2.1 nM.
`CCc1c2c(nn1C)C(CCC1CCOCC1)N(C)S(=O)(=O)CCCn1c(C(=O)O)c(CCCOc3cccc4cc(F)ccc34)c3ccc(Cl)c-2c31` (racemic) [Example 59, (rac)-4-chloro-3-ethyl-7-{3-[(6-fluoro-1-naphthyl)oxy]propyl}-2,14-dimethyl-15-[2-(tetrahydro-2H-pyran-4-yl)ethyl]-11,12,14,15-tetrahydro-2H,10H-pyrazolo[3′,4′:4,5][1,2,8]thiadiazacycloundecino[6,7,8-hi]indole-8-carboxylic acid 13,13-dioxide (Racemate 2)]: the midpoint of inhibition, the IC50, lay at 1.9 nM.
Molecule `CCc1c2c(nn1C)C(CCC1CCOCC1)N(C)S(=O)(=O)CCCn1c(C(=O)O)c(CCCOc3cccc4cc(F)ccc34)c3ccc(Cl)c-2c31` (racemic) [Example 60, (rac)-4-chloro-3-ethyl-7-{3-[(6-fluoro-1-naphthyl)oxy]propyl}-2,14-dimethyl-15-[2-(tetrahydro-2H-pyran-4-yl)ethyl]-11,12,14,15-tetrahydro-2H,10H-pyrazolo[3′,4′:4,5][1,2,8]thiadiazacycloundecino[6,7,8-hi]indole-8-carboxylic acid 13,13-dioxide (Racemate 1)] came in with an IC50 of 2.4 nM.
`Cc1c2c(nn1C)C(CCN1CCOCC1)N(C)S(=O)(=O)CCCn1c(C(=O)O)c(CCCOc3cccc4cc(F)ccc34)c3ccc(Cl)c-2c31` (racemic) [Example 65, (rac)-4-chloro-7-{3-[(6-fluoronaphthalen-1-yl)oxy]propyl}-2,3,14-trimethyl-15-(rac)-[2-(morpholin-4-yl)ethyl]-13,13-dioxo-10,11,12,13,14,15-hexahydro-2H-13lambda^6-pyrazolo[3′,4′:4,5][1,2,8]thiadiazacycloundecino[6,7,8-hi]indole-8-carboxylic acid (Mixture of Stereoisomers)] gave an IC50 of 0.94 nM.
Regarding `CCc1c2c(nn1C)C(CCN1CCOCC1)N(C)S(=O)(=O)CCCn1c(C(=O)O)c(CCCOc3cccc4cc(F)ccc34)c3ccc(Cl)c-2c31` (racemic) [Example 73, (rac)-(4-chloro-3-ethyl-7-{3-[(6-fluoronaphthalen-1-yl)oxy]propyl}-2,14-dimethyl-15-[2-(morpholin-4-yl)ethyl]-13,13-dioxo-10,11,12,13,14,15-hexahydro-2H-13lambda^6-pyrazolo[3′,4′:4,5][1,2,8]thiadiazacycloundecino[6,7,8-hi]indole-8-carboxylic acid (Racemate 1)], the concentration for half-maximal inhibition (IC50) worked out at 0.34 nM.
`Cc1c2c(nn1C)CN(C)S(=O)(=O)CCCn1c(C(=O)O)c(CCCOc3cccc4ccccc34)c3ccc(Cl)c-2c31` (single isomer, unassigned; enantiomer 1) [Example 5, 4-Chloro-2,3,14-trimethyl-7-{3-[(naphthalen-1-yl)oxy]propyl}-13,13-dioxo-10,11,12,13,14,15-hexahydro-2H-13λ^6-pyrazolo[3′,4′:4,5][1,2,8]thiadiazacycloundecino[6,7,8-hi]indole-8-carboxylic acid-N-ethylethanamine salt (Enantiomer 1)] yielded an IC50 of 0.52 nM. This IC50 lies about 1.5-fold higher than the previous one.
Turning to `CCc1c2c(nn1C)CN(C)S(=O)(=O)CCCn1c(C(=O)O)c(CCCOc3cccc4cc(F)ccc34)c3ccc(F)c-2c31` (single isomer, unassigned; enantiomer 1) [Example 8, (+)-3-Ethyl-4-fluoro-7-{3-[(6-fluoronaphthalen-1-yl)oxy]propyl}-2,14-dimethyl-13,13-dioxo-10,11,12,13,14,15-hexahydro-2H-13λ^6-pyrazolo[3′,4′:4,5][1,2,8]thiadiazacycloundecino-[6,7,8-hi]indole-8-carboxylic acid (Enantiomer 1)], half-maximal inhibition (IC50) was put at 1.7 nM.
Under `CCc1c2c(nn1C)CN(C)S(=O)(=O)CCCn1c(C(=O)O)c(CCCOc3cccc4cc(F)ccc34)c3ccc(Cl)c-2c31` (single isomer, unassigned; enantiomer 1) [Example 36, (+)-4-chloro-3-ethyl-7-{3-[(6-fluoronaphthalen-1-yl)oxy]propyl}-2,14-dimethyl-13,13-dioxo-10,11,12,13,14,15-hexahydro-2H-13lambda^6-pyrazolo[3′,4′:4,5][1,2,8]thiadiazacycloundecino-[6,7,8-hi]indole-8-carboxylic acid (Enantiomer 1)] stands 0.6 nM.
Under `Cc1c2c(nn1C)CN(C)S(=O)(=O)CCCn1c(C(=O)O)c(CCCOc3cccc4cc(F)ccc34)c3ccc(F)c-2c31` (single isomer, unassigned; enantiomer 1) [Example 38, (−)-4-fluoro-7-{3-[(6-fluoronaphthalen-1-yl)oxy]propyl}-2,3,14-trimethyl-13,13-dioxo-10,11,12,13,14,15-hexahydro-2H-13lambda^6-pyrazolo[3′,4′:4,5][1,2,8]thiadiazacycloundecino-[6,7,8-hi]indole-8-carboxylic acid (Enantiomer 1)] stands 23 nM; under `Cc1c2c(nn1C)CN(C1CC1)S(=O)(=O)CCCn1c(C(=O)O)c(CCCOc3cccc4cc(F)ccc34)c3ccc(Cl)c-2c31` (single isomer, unassigned; enantiomer 1) [Example 42, (−)-4-chloro-14-cyclopropyl-7-{3-[(6-fluoro-1-naphthyl)oxy]propyl}-2,3-dimethyl-11,12,14,15-tetrahydro-2H,10H-pyrazolo[3′,4′:4,5][1,2,8]thiadiazacycloundecino[6,7,8-hi]indole-8-carboxylic acid 13,13-dioxide N-diethylamine salt (Enantiomer 1)], 0.34 nM.

These data come from US11401278B2, “Macrocyclic indole derivatives” (The Broad Institute, Inc., priority 2017, dated 2022).
